# Where a name gives a salt, the structure may show the parent alone.
# Columns and labels:
# [1] = Acute toxicity (LD50), Weil method; conditions: mouse, in vivo, ip; mice, intraperitoneal; read-out: i.p. LD50
# Excerpt: Acute toxicity was investigated by using the method disclosed by Weil C. S. in "Tables for convenient calculation of median-effective dose (LD50 or ED50) and instructions in their use", Biometrics, 249-253, 1952.
# The tolerance of the compounds under examination was investigated in mice after administration by the intraperitoneal or oral route. […] (see the Table).
# [2] = test system: rabbit isolated heart; assay: Inotropic effect on isolated rabbit heart (Langendorff) after anoxia; conditions: dose 10^-5 gl^-1, 10 minutes from the interruption of the anoxic period, percentage increase against controls
# Procedure: Rabbit hearts isolated by the Langendorff method were perfused with oxygenized Ringer solution at 38.2° C. The isometric contractions, electrogardiogram and coronary flow were recorded using a "Battaglia-Rangoni" polygraph. By removing the oxygen from the perfusion fluid, metabolic damage was induced in the cardiac muscle, up to an 80% reduction in the cardiac contractile force.
# Under these conditions of prolonged anoxia the aerobic glycolysis of the myocardium is slowed down, accompanied by the storage of acid catabolites due to both the accumulation of pyruvic acid and its conversion to lactic acid which cannot be utilized because of the depression of pyridine enzymes, such as LDH (lactodehydogenase). This has repercussions on the anaerobic glycolysis affecting an ever increasing number of enzymes, accompanied by a progressive and increasingly critical exhaustion of the myocardium. Thus a whole series of cardiac muscle fatigue levels occurs which can be observed by the behavior of the examined parameters, namely the contractile force, coronary flow, heart rate and cardiac rhythm. As soon as the contractile force was reduced by 80%, the perfusion fluid was once again oxygenized either without adding other compounds (controls) or with the addition of the compounds under examination.
# In the Table there are shown the percentage value of increase against the controls.
# [3] = test system: mice; assay: Antiarrhythmic / antifibrillatory effect, aconitine-induced arrhythmia (Nwangwu et al.); assay type: in vivo
# Procedure: In order to evaluate the antiarrhythmic activity of the carnitine derivatives of this invention studied with in vivo tests in addition to and in comparison with the currently employed in vitro tests, the method disclosed by Nwangwu et al. (Arch. Inc. Pharmacodyn., 1977, 229, 219) was used.
# According to this method an aconitine solution is injected into the caudal vein of mice and the onset time of arrhythmia and tachycardia after 2 to 60 minutes from administration of the compounds under examination is recorded.
# The antiarrhythmic activity calculated from the increase in the latency time of the onset of the arrhythmias of the treated animals in comparison with the controls, is illustrated in the Table.
# [4] = test system: adrenaline; assay: Adrenaline-antagonizing effect (adrenaline-induced mortality); assay type: in vivo, male Albino Swiss mice; conditions: mice, adrenaline after 30 minutes, mortality checked for 36 hours
# Procedure: Groups of ten male Albino Swiss mice, weighing 12-22 g, were intraperitoneally administered either with the compounds of the present invention or with saline (control) and, after 30 minutes, with adrenaline (treated) at a dose capable of bringing about death to 100% of the control animals due to ventricular fibrillation and cardiac lesions ensuing from increase in frequency, pressure and oxygen uptake from the myocardium.
# Mortality was checked for 36 hours and the effect of the compounds expressed as percentage of surviving animals, is shown in the Table.
Compound,LD50 [1],"Inotropic effect, % of controls [2]","Antifibrillatory activity, % reduction ([3]; dose 300 mg kg^-1 i.v.)","Antiadrenaline activity, % mortality reduction ([4]; dose 450 mg kg^-1 i.p.)","Antifibrillatory activity, % reduction ([3]; dose 25 mg kg^-1 i.v.)","Antiadrenaline activity, % mortality reduction ([4]; dose 50 mg kg^-1 i.p.)"
"CCOCCC(=O)OC(CC(=O)O)C[N+](C)(C)C (centres unmarked) [R = 3-ethoxypropionyl, 3-ethoxypropionyl carnitine hydrochloride]",1300 mg/kg,+95%,80%,75%,,
"COCCCC(=O)OC(CC(=O)O)C[N+](C)(C)C (centres unmarked) [R = 4-methoxybutyryl, 4-methoxybutyryl carnitine]",1850 mg/kg,+85%,,,85%,78%

# Source: patent publication US4590209A, “Alkoxy-acyl carnitines and pharmaceutical compositions containing same” (Sigma-Tau Industrie Farmaceutiche Riunite S.p.A., priority 1980, dated 1986)
